Laboratory results taken from the supplement of paper PMC10307832.

Tests used:
Assay in all cases: relative viability (nuclei count vs DMSO), 5 days (fraction); higher = more cells survive
[1] = tested on: 201T
Summary of the method: (§1)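 The day after seeding in 1536-well plates, lung cancer cell lines were treated by pin tool with a single drug, or with a fixed anchor-drug dose together with five library-drug doses (not always all listed) in √10 steps. After 5 days, a combined fix-and-stain solution (final 0.05% Triton X-100, 1% formaldehyde, 1 ug/ml Hoechst) was added. Nuclei counted on 4× images gave relative viability as treated counts over vehicle counts, reported as the median of duplicate plates.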

[2] = tested on: ABC-1
Summary of the method: as §1

[3] = tested on: EPLC-272H
Summary of the method: as §1

[4] = tested on: HCC-78
Summary of the method: as §1

[5] = tested on: LCLC-103H
Summary of the method: as §1

[6] = tested on: LCLC-97TM1
Summary of the method: as §1

[7] = tested on: LOU-NH91
Summary of the method: as §1

[8] = tested on: NCI-H1355
Summary of the method: as §1

[9] = tested on: NCI-H1651
Summary of the method: as §1

[10] = tested on: NCI-H1734
Summary of the method: as §1

[11] = tested on: NCI-H1793
Summary of the method: as §1

[12] = tested on: NCI-H1915
Summary of the method: as §1

[13] = tested on: NCI-H1993
Summary of the method: as §1

[14] = tested on: NCI-H2228
Summary of the method: as §1

[15] = tested on: NCI-H460
Summary of the method: as §1

[16] = tested on: NCI-H596
Summary of the method: as §1

[17] = tested on: NCI-H650
Summary of the method: as §1

[18] = tested on: NCI-H661
Summary of the method: as §1

[19] = tested on: PC-3 [JPC-3]
Summary of the method: as §1

[20] = tested on: RERF-LC-KJ
Summary of the method: as §1

[21] = tested on: SK-MES-1
Summary of the method: as §1

[22] = tested on: SW 1573
Summary of the method: as §1

Structure (SMILES): C=C1C(=O)O[C@@H](CCCCCCCC)[C@@H]1C(=O)O [C-75] + O=C(CCCCCCC(=O)Nc1ccccc1)NO [Vorinostat] (partner 1 µM)
- relative viability ([1]; first compound 0.08 µM): 0.976
- relative viability ([1]; first compound 0.253 µM): 1.31
- relative viability ([1]; first compound 0.8 µM): 0.91
- relative viability ([1]; first compound 2.53 µM): 0.936
- relative viability ([1]; first compound 8 µM): 0.979
- relative viability ([2]; first compound 0.08 µM): 1.32
- relative viability ([2]; first compound 0.253 µM): 1.18
- relative viability ([2]; first compound 0.8 µM): 0.547
- relative viability ([2]; first compound 2.53 µM): 0.805
- relative viability ([2]; first compound 8 µM): 0.649
- relative viability ([3]; first compound 0.08 µM): 0.477
- relative viability ([3]; first compound 0.253 µM): 0.545
- relative viability ([3]; first compound 0.8 µM): 0.655
- relative viability ([3]; first compound 2.53 µM): 0.41
- relative viability ([3]; first compound 8 µM): 0.391
- relative viability ([4]; first compound 0.08 µM): 0.372
- relative viability ([4]; first compound 0.253 µM): 0.668
- relative viability ([4]; first compound 0.8 µM): 0.373
- relative viability ([4]; first compound 8 µM): 0.372
- relative viability ([5]; first compound 0.08 µM): 0.736
- relative viability ([5]; first compound 0.253 µM): 0.758
- relative viability ([5]; first compound 0.8 µM): 0.708
- relative viability ([5]; first compound 2.53 µM): 0.664
- relative viability ([5]; first compound 8 µM): 0.765
- relative viability ([6]; first compound 0.08 µM): 0.864
- relative viability ([6]; first compound 0.253 µM): 0.817
- relative viability ([6]; first compound 0.8 µM): 0.49
- relative viability ([6]; first compound 2.53 µM): 0.413
- relative viability ([6]; first compound 8 µM): 0.455
- relative viability ([7]; first compound 0.08 µM): 0.939
- relative viability ([7]; first compound 0.253 µM): 0.939
- relative viability ([7]; first compound 0.8 µM): 0.828
- relative viability ([7]; first compound 8 µM): 0.898
- relative viability ([8]; first compound 0.08 µM): 0.643
- relative viability ([8]; first compound 0.253 µM): 0.696
- relative viability ([8]; first compound 0.8 µM): 0.67
- relative viability ([8]; first compound 2.53 µM): 0.52
- relative viability ([8]; first compound 8 µM): 0.639
- relative viability ([9]; first compound 0.08 µM): 0.55
- relative viability ([9]; first compound 0.253 µM): 0.58
- relative viability ([9]; first compound 0.8 µM): 0.525
- relative viability ([9]; first compound 2.53 µM): 0.522
- relative viability ([9]; first compound 8 µM): 0.509
- relative viability ([10]; first compound 0.08 µM): 0.834
- relative viability ([10]; first compound 0.253 µM): 0.877
- relative viability ([10]; first compound 0.8 µM): 0.766
- relative viability ([10]; first compound 2.53 µM): 0.538
- relative viability ([10]; first compound 8 µM): 0.693
- relative viability ([11]; first compound 0.08 µM): 0.674
- relative viability ([11]; first compound 0.253 µM): 1.01
- relative viability ([11]; first compound 2.53 µM): 0.425
- relative viability ([11]; first compound 8 µM): 0.751
- relative viability ([12]; first compound 0.08 µM): 0.506
- relative viability ([12]; first compound 0.253 µM): 0.548
- relative viability ([12]; first compound 0.8 µM): 0.526
- relative viability ([12]; first compound 2.53 µM): 0.475
- relative viability ([12]; first compound 8 µM): 0.536
- relative viability ([13]; first compound 0.08 µM): 0.719
- relative viability ([13]; first compound 0.253 µM): 0.842
- relative viability ([13]; first compound 0.8 µM): 0.616
- relative viability ([13]; first compound 2.53 µM): 0.715
- relative viability ([13]; first compound 8 µM): 0.657
- relative viability ([14]; first compound 0.08 µM): 0.617
- relative viability ([14]; first compound 0.253 µM): 0.681
- relative viability ([14]; first compound 0.8 µM): 0.661
- relative viability ([14]; first compound 2.53 µM): 0.67
- relative viability ([14]; first compound 8 µM): 0.562
- relative viability ([15]; first compound 0.08 µM): 0.698
- relative viability ([15]; first compound 0.253 µM): 0.882
- relative viability ([15]; first compound 0.8 µM): 0.688
- relative viability ([15]; first compound 2.53 µM): 0.58
- relative viability ([15]; first compound 8 µM): 0.674
- relative viability ([16]; first compound 0.08 µM): 0.644
- relative viability ([16]; first compound 0.253 µM): 0.642
- relative viability ([16]; first compound 0.8 µM): 0.671
- relative viability ([16]; first compound 2.53 µM): 0.516
- relative viability ([16]; first compound 8 µM): 0.483
- relative viability ([17]; first compound 0.08 µM): 0.413
- relative viability ([17]; first compound 0.253 µM): 0.388
- relative viability ([17]; first compound 0.8 µM): 0.401
- relative viability ([17]; first compound 2.53 µM): 0.351
- relative viability ([17]; first compound 8 µM): 0.416
- relative viability ([18]; first compound 0.08 µM): 0.762
- relative viability ([18]; first compound 0.253 µM): 0.828
- relative viability ([18]; first compound 0.8 µM): 0.741
- relative viability ([18]; first compound 2.53 µM): 0.657
- relative viability ([18]; first compound 8 µM): 0.774
- relative viability ([19]; first compound 0.08 µM): 0.837
- relative viability ([19]; first compound 0.253 µM): 0.819
- relative viability ([19]; first compound 0.8 µM): 0.415
- relative viability ([19]; first compound 2.53 µM): 0.583
- relative viability ([19]; first compound 8 µM): 0.764
- relative viability ([20]; first compound 0.08 µM): 0.713
- relative viability ([20]; first compound 0.253 µM): 0.801
- relative viability ([20]; first compound 0.8 µM): 0.687
- relative viability ([20]; first compound 2.53 µM): 0.69
- relative viability ([20]; first compound 8 µM): 0.71
- relative viability ([21]; first compound 0.08 µM): 1.08
- relative viability ([21]; first compound 0.253 µM): 1.12
- relative viability ([21]; first compound 0.8 µM): 1.06
- relative viability ([21]; first compound 2.53 µM): 1.04
- relative viability ([21]; first compound 8 µM): 1.1
- relative viability ([22]; first compound 0.08 µM): 0.976
- relative viability ([22]; first compound 0.253 µM): 0.816
- relative viability ([22]; first compound 0.8 µM): 0.701
- relative viability ([22]; first compound 2.53 µM): 0.442
- relative viability ([22]; first compound 8 µM): 0.517
